How the values were obtained:
Format in all cases: cell-based
[1] = test system: Fusobacterium necrophorum; assay: Agar-dilution MIC, anaerobic bacteria (Table 10); conditions: Fusobacterium necrophorum 6054A
[2] = test system: Eubacterium aerofaciens; assay: Agar-dilution MIC, anaerobic bacteria (Table 10); conditions: Eubacterium aerofaciens 1235
[3] = test system: Staphylococcus epidermidis; assay: Standard agar-dilution assay, aerobic bacteria (Table 9)
Description: (§1) The in vitro activity of antibiotic A51568 against a number of aerobic bacteria has been determined using a standard agar-dilution assay. The results, determined by reading the end point after 24 hours, are recorded in Table 9, which follows.

[4] = test system: Streptococcus sp. Group D; assay: as above
Description: as §1

[5] = test system: Klebsiella pneumoniae; assay: as above
Description: as §1

[6] = test system: Haemophilus influenzae; assay: as above
Description: as §1

[7] = test system: Streptococcus pneumoniae; assay: as above; conditions: Streptococcus pneumoniae Park I, end point after 24 hours
Description: as §1

[8] = test system: Staphylococcus aureus; assay: as above
Description: as §1

[9] = test system: Escherichia coli; assay: as above
Description: as §1

[10] = test system: Streptococcus pyogenes; assay: as above; conditions: Streptococcus pyogenes C203, end point after 24 hours
Description: as §1

[11] = test system: Bacteroides thetaiotaomicron; assay: Agar-dilution MIC, anaerobic bacteria (Table 10); conditions: Bacteroides thetaiotaomicron 1438
[12] = test system: Fusobacterium symbiosum; assay: Agar-dilution MIC, anaerobic bacteria (Table 10); conditions: Fusobacterium symbiosum 1470
[13] = test system: Peptococcus prevoti; assay: Agar-dilution MIC, anaerobic bacteria (Table 10); conditions: Peptococcus prevoti 1281
[14] = test system: Bacteroides melaninogenicus; assay: Agar-dilution MIC, anaerobic bacteria (Table 10)
[15] = test system: Propionibacterium acnes; assay: Agar-dilution MIC, anaerobic bacteria (Table 10); conditions: Propionibacterium acnes 79
[16] = test system: Clostridium septicum; assay: Agar-dilution MIC, anaerobic bacteria (Table 10); conditions: Clostridium septicum 1128
Text: (§2) Antibiotic A51568 has been tested and found to be active against a number of anaerobic bacteria, as recorded in Table 10, which follows, the MIC values having been determined by the agar-dilution method.

[17] = test system: Clostridium difficile; assay: Agar-dilution MIC, anaerobic bacteria (Table 10); conditions: Clostridium difficile 2994
Text: as §2

[18] = test system: Peptostreptococcus anaerobius; assay: Agar-dilution MIC, anaerobic bacteria (Table 10); conditions: Peptostreptococcus anaerobius 1428
[19] = test system: Peptostreptococcus intermedius; assay: Agar-dilution MIC, anaerobic bacteria (Table 10); conditions: Peptostreptococcus intermedius 1264
[20] = test system: Streptococcus sp. Group B; assay: Agar-dilution MIC, variety of bacteria (Table 8)
Description: (§3) The activity of antibiotic A51568 against a variety of bacteria, as determined by the agar-dilution method, is reported in Table 8, which follows, wherein the minimum inhibitory concentration (MIC) values are recorded.

[21] = test system: Staphylococcus epidermidis; assay: Agar-dilution MIC, variety of bacteria (Table 8)
Description: as §3

[22] = test system: Streptococcus sp. Group D; assay: Agar-dilution MIC, variety of bacteria (Table 8)
Description: as §3

[23] = test system: Haemophilus influenzae; assay: Agar-dilution MIC, variety of bacteria (Table 8)
Description: as §3

Measured: MIC

CC(C)C[C@@H](N)C(=O)N[C@@H]1C(=O)N[C@@H](CC(N)=O)C(=O)N[C@H]2C(=O)N[C@H]3C(=O)N[C@H](C(=O)N[C@H](C(=O)O)c4cc(O)cc(O)c4-c4cc3ccc4O)[C@H](O)c3ccc(c(Cl)c3)Oc3cc2cc(c3O[C@@H]2O[C@H](CO)[C@@H](O)[C@H](O)[C@H]2O[C@H]2C[C@](C)(N)C(O)[C@H](C)O2)Oc2ccc(cc2Cl)[C@H]1O (stereo partly shown) [A51568, demethylvancomycin]
> 128 µg/mL: [5]; Klebsiella pneumoniae KAE, end point after 24 hours | [5]; Klebsiella pneumoniae X26, end point after 24 hours | [9]; Escherichia coli EC14, end point after 24 hours | [9]; Escherichia coli N10, end point after 24 hours | [14]; Bacteroides melaninogenicus 1856/28
64 µg/mL: [6]; Haemophilus influenzae (sensitive) Holt, end point after 24 hours | [23]; Haemophilus influenzae 76
16 µg/mL: [14]; Bacteroides melaninogenicus 2736
4 µg/mL: [4]; Streptococcus sp. Group D 9960, end point after 24 hours | [20]; Streptococcus sp. Group B 5 | [22]; Streptococcus sp. Group D 2058 | [22]; Streptococcus sp. Group D 9960
128 µg/mL: [6]; Haemophilus influenzae (resistant) R252, end point after 24 hours | [9]; Escherichia coli TEM, end point after 24 hours | [23]; Haemophilus influenzae 312
2 µg/mL: [1] | [2] | [3]; Staphylococcus epidermidis EPI1, end point after 24 hours | [8]; Staphylococcus aureus X400, end point after 24 hours | [12] | [17] | [21]; Staphylococcus epidermidis 269 | [21]; Staphylococcus epidermidis 270 | [21]; Staphylococcus epidermidis 285 | [22]; Streptococcus sp. Group D 2041 | [22]; Streptococcus sp. Group D 9901
32 µg/mL: [11] | [13]
1 µg/mL: [3]; Staphylococcus epidermidis EPI2, end point after 24 hours | [4]; Streptococcus sp. Group D X66, end point after 24 hours | [8]; Staphylococcus aureus 3055, end point after 24 hours | [8]; Staphylococcus aureus S13E, end point after 24 hours | [8]; Staphylococcus aureus V41, end point after 24 hours | [10] | [15] | [16] | [18] | [19] | [21]; Staphylococcus epidermidis 219 | [21]; Staphylococcus epidermidis 222 | [22]; Streptococcus sp. Group D 8043 | [22]; Streptococcus sp. Group D 12253F | [22]; Streptococcus sp. Group D Mx161 | [22]; Streptococcus sp. Group D X66
0.5 µg/mL: [7] | [20]; Streptococcus sp. Group B 14
